Experimental data as given in patent publication US10086028B2, “Method for treating vascular inflammation, improving skin beauty and improving male sexual function using ginseng berry” (AMOREPACIFIC CORPORATION, priority 2007, dated 2018).

Experiments:
[1] = tested on: TNF-α; assay: LPS-induced inflammatory factor TNF-α in mouse blood; format: in vivo; conditions: mouse blood about 12 h after LPS, intra-abdominal
Method: Based on the experimental result in the cell level, the effect of controlling vascular inflammation of the ginseng berry extract was tested in an animal model. Mice were grouped into a non-treated group, an LPS-induced group, a group treated with the ginseng berry extract of Example 1 (50 μg/mL and 100 μg/mL), a group treated with the ginseng berry saponin concentrate of Example 2 (100 μg/mL), a group treated with the ginseng root extract of Comparative Example 1 (100 μg/mL) and groups treated with ginsenosides Rg1, Rg2, Rh1 or Re (10 μg/mL and 20 μg/mL), with 5 mice per each group.
100 mg of each test substance per kg body weight of mouse, diluted in saline solution (0.9% NaCl), was intra-abdominally injected three times from day 1 through day 3. 2 hours after the injection on day 3, LPS diluted in saline solution (1 μg/mL) was injected intra-abdominally at a concentration of about 4 mg per kg body weight of mouse to induce inflammation by inflammatory factors (PGE2, TNF-α and IL1-β). After approximately 12 hours, the abdomen of the mouse was cut open, and blood was taken from the artery of the heart and stored at […]. The blood was kept at room temperature for 30 minutes and, after centrifuge at 4° C. and 3,000 rpm for 10 minutes, the supernatant was kept at −20° C. Then, the inflammatory factors PGE2, TNF-α and IL1-β were identified by western blotting. Measurement was made twice and the mean value was calculated. The result is shown in Table 4 and FIG. 9 (PGE2 (ng/mL)), Table 5 and FIG. 10 (TNF-α (ng/mL)), and Table 6 and FIG. 11 (IL1-β (pg/mL)).

[2] = tested on: type I procollagen; assay: Type I procollagen assay in human fibroblasts (ELISA); format: cell-based; conditions: 3rd day, sample 10 μg/mL
Method: Human fibroblasts were cultured on a 12-well plate incubator to a concentration of 10^5 cells/well. Then, the medium was replaced by one including the ginseng berry extract of Example 1 (1 μg/mL and 10 μg/mL), the ginseng berry saponin concentrate of Example 2 (10 μg/mL), the ginseng root extract of Comparative Example 1 (10 μg/mL) or ginsenosides Rg1, Rg2, Rh1 or Re (10 μg/mL). 10 ng/mL transforming growth factor β (TGF-β) was used as a positive control substance.
On the 3rd day of culturing, the cells were harvested and the quantity of produced type I procollagen was analyzed using ELISA. The result was calculated as a relative value with respect to the negative control group, which was not treated with a test substance.

[3] = tested on: Cyclooxygenase-2 (COX-2); assay: Inhibition of UV-induced COX-2 biosynthesis in human fibroblasts (western blotting); format: cell-based; conditions: UVA 15 J/cm^2, 2nd day, relative to UV control; sample 10 μg/mL
Method: Human fibroblasts were cultured on a 12-well plate incubator to a concentration of 10^5 cells/well. Then, after irradiating UVA at 15 J/cm^2, the medium was replaced by one including the ginseng berry extract of Example 1 (0.1 μg/mL, 1 μg/mL and 10 μg/mL), the ginseng berry saponin concentrate of Example 2 (10 μg/mL), the ginseng root extract of Comparative Example 1 (0.1 μg/mL, 1 μg/mL and 10 μg/mL) or ginsenosides Rg1, Rg2, Rh1 or Re (10 μg/mL). On the 2nd day of culturing, the cells were harvested and the quantity of produced COX-2 was analyzed using western blotting. The result was calculated as a relative value with respect to the control group, which was irradiated with UV without treating with a test substance, using a densitometer.

[4] = tested on: melanocytes (MeI-Ab cells); assay: Inhibition of melanin generation in mouse melanocytes; format: cell-based, C57BL/6 mouse; conditions: added for 3 consecutive days; sample 10 μg/mL
Method: Inhibition of melanin generation in mouse melanocytes was evaluated in order to confirm the effect of the ginseng berry extract of Example 1 of inhibiting melanin generation.
First, melanocytes (MeI-Ab cells) derived from C57BL/6 mouse [Dooley, T. P. et al, Skin Pharmacol., 7, pp. 188-200] were cultured in Dulbecco's modified Eagle's medium (DMEM) containing 10% FBS, 100 nM 2-O-tetradecanoylphorbol-13-acetate and 1 nM cholera toxin under the condition of 37° C., 5% CO2. The cultured MeI-Ab cells were separated using 0.25% trypsin-EDTA, and cultured on a 24-well plate to a concentration of 10^5 cells/well. Starting from day 2, the ginseng berry extract of Example 1 (1 μg/mL, 10 μg/mL and 100 μg/mL), the ginseng berry saponin concentrate of Example 2 (10 μg/mL), the ginseng root extract of Comparative Example 1 (10 μg/mL) or ginsenosides Rg1, Rg2, Rh1 or Re (10 μg/mL) was added for 3 consecutive days. Hydroquinone (10 μg/mL) was used as a positive control substance. Then, after removing the medium and washing with PBS, the cells were dissolved with 1 N sodium hydroxide. Absorbance was measured at 400 nm, and melanin generation inhibition ratio was calculated by Equation 3.

Row | SMILES | TNF-α, Mean ± standard deviation ([1]; group (10 μg/mL)) [ng/mL] | TNF-α, Result 1 ([1]; group (10 μg/mL)) [ng/mL] | TNF-α, Result 2 ([1]; group (10 μg/mL)) [ng/mL] | TNF-α, Mean ± standard deviation ([1]; group (20 μg/mL)) [ng/mL] | TNF-α, Result 1 ([1]; group (20 μg/mL)) [ng/mL] | TNF-α, Result 2 ([1]; group (20 μg/mL)) [ng/mL] | Procollagen activity relative to negative control (%) [2] [%] | COX-2 biosynthesis (%) [3] [%] | Melanin generation inhibition ratio (%) [4] [%]
1 | CC(C)=CCC[C@](C)(O[C@@H]1O[C@H](CO)[C@@H](O)[C@H](O)[C@H]1O)[C@H]1CC[C@]2(C)[C@@H]1[C@H](O)C[C@@H]1[C@@]3(C)CC[C@H](O)C(C)(C)[C@@H]3[C@@H](O[C@@H]3O[C@H](CO)[C@@H](O)[C@H](O)[C@H]3O)C[C@]12C [Rg1] | 38.60 ± 2.69 | 36.7 | 40.5 | 34.55 ± 2.90 | 36.6 | 32.5 | 105 | 95 | 1
2 | CC(C)=CCC[C@](C)(O)[C@H]1CC[C@]2(C)[C@@H]1[C@H](O)C[C@@H]1[C@@]3(C)CC[C@H](O)C(C)(C)[C@@H]3[C@@H](O[C@@H]3O[C@H](CO)[C@@H](O)[C@H](O)[C@H]3O[C@@H]3O[C@@H](C)[C@H](O)[C@@H](O)[C@H]3O)C[C@]12C [Rg2] | 35.05 ± 2.47 | 33.3 | 36.8 | 31.60 ± 1.98 | 30.2 | 33 | 110 | 97 | 0
3 | CC(C)=CCC[C@](C)(O)[C@H]1CC[C@]2(C)[C@@H]1[C@H](O)C[C@@H]1[C@@]3(C)CC[C@H](O)C(C)(C)[C@@H]3[C@@H](O[C@@H]3O[C@H](CO)[C@@H](O)[C@H](O)[C@H]3O)C[C@]12C [Rh1] | 32.55 ± 5.16 | 28.9 | 36.2 | 32.15 ± 3.32 | 29.8 | 34.5 | 105 | 99 | 2
